The Km is the substrate concentration at which the rate is half of its maximum.

Data on 1 compound can be found in patent US5451520A, “Creatine amidinohydrolase from alkaligenes sp. ks-85 ferm bp-4487” (Kikkoman Corporation, priority 1993, dated 1995).

Assay [1] deals with T1, conventional creatine amidinohydrolase (CRH-211, a product of Toyobo Co., Ltd.) (Pseudomonas putida, UniProt P38488).
T1 construct: purchased Toyobo Co., Ltd. CRH-211
T1 sequence (P38488 1-403): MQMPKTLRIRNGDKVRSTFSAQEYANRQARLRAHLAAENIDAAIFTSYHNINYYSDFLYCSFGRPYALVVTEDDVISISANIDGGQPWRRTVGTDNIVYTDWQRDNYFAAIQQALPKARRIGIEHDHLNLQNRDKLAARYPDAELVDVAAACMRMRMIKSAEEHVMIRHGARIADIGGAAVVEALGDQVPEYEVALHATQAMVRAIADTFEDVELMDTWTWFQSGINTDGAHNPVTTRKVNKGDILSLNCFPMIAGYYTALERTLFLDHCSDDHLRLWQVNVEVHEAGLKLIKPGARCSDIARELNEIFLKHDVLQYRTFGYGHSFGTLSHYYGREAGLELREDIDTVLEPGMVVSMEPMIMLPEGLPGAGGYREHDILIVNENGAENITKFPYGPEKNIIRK
The note with it: conventional enzyme; substrate creatine; cited from earlier work.

The test system of assay [2] is creatine amidinohydrolase from Alkaligenes sp. KS-85 (FERM BP-4487), the present enzyme. The experiment in a line: Km determination by Lineweaver-Burk plot, creatine substrate. It is filed as biochemical. The note with it: pH 7.7, 37° C. The protocol:
The enzyme activity forming […] yellow pigment in 1 minute under the following conditions is referred to as 1 U of the present enzyme.
6.63 g of creatine is dissolved in 500 ml of 50 mM buffer, pH 7.7.
1) 0.9 ml of the solution 1 is pre-incubated at 37° C. for 5 min.
2) 0.1 ml of an enzyme solution (adjusted in the range of approx. 1-2 U/ml) is mixed therewith and allowed to react at 37° C. for 10 min.
3) After 10 min. reaction, 2 ml of the solution 2 is mixed therewith.
4) After being mixed with the solution 2, the mixture is allowed to stand at 25° C. for 20 min., and the absorbance at 435 nm is determined (the OD sample).

As to `CN(CC(=O)O)C(=N)N` [creatine], the values for the Km in assay [1] and in assay [2] were 24 mM and 13 mM, respectively.
